Experimental data taken from PubChem BioAssay (NCI).
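Assay format: 96-well plates, 48-hour exposure. TGI is the concentration that stops growth completely.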

Key:
Test in all cases: DTP human tumour cell line panel, 48 h
[1] = test system: OVCAR-4 ovarian
[2] = test system: SW-620 colon
[3] = test system: EKVX NSCLC
[4] = test system: HT29 colon
[5] = test system: SR leukemia
[6] = test system: KM12 colon
[7] = test system: LOX IMVI melanoma
[8] = test system: HCT-15 colon
[9] = test system: PC-3 prostate
[10] = test system: CAKI-1 renal
[11] = test system: MCF7 breast

Row | SMILES | TGI [1] [µM] | TGI [2] [µM] | TGI [3] [µM] | TGI [4] [µM] | TGI [5] [µM] | TGI [6] [µM] | TGI [7] [µM] | TGI [8] [µM] | TGI [9] [µM] | TGI [10] [µM] | TGI [11] [µM]
1 | CCN1CCC(O)(c2ccc(Cl)cc2)C(C(=O)c2ccc(Cl)cc2)C1 (centres undefined) | > 100 | > 100 | > 100 | > 100 | > 100 | > 100 | > 100 | – | – | – | –
2 | O=C1c2ccc(O)c(O)c2C(=O)c2c(O)ccc(O)c21 | 6.53 | > 100 | 67.4 | > 100 | 93.7 | 98.9 | 44.3 | 89.1 | – | – | –
3 | COc1ccc(SCc2cc(OCc3ccccc3)c(OCc3ccccc3)c(OCc3ccccc3)c2)cc1 | 3.25 | – | 4.37 | – | – | 3.16 | 2.91 | 3.47 | 3.37 | 3.02 | –
4 | COc1cc(Cc2nccc3cc(OC)c(OC)cc23)c(N=NN(C)C)cc1OC | 70.7 | 37.9 | 42.4 | 25 | – | 40.2 | – | 19.6 | 56.8 | 22.3 | 37.3
5 | CCOC(=O)c1ccc(N=c2sc3ccccc3nc2Nc2ccc(C(=O)OCC)cc2)cc1 | > 100 | > 100 | > 100 | > 100 | > 100 | > 100 | > 100 | > 100 | > 100 | > 100 | –
6 | Nc1nc2c3nc(Nc4ccccc4)sc3nc(=O)n2c2sc(Nc3ccccc3)nc12 | > 100 | > 100 | > 100 | > 100 | > 100 | – | – | > 100 | – | – | –
7 | CCN(CC)C(=O)C(C)n1cc(C)c(=O)[nH]c1=O (centres undefined) | > 100 | > 100 | > 100 | > 100 | – | > 100 | > 100 | > 100 | – | – | –
8 | Cc1ccc2c(c1)-c1nc(N)c(C#N)c(-c3ccccc3)c1CCS2(=O)=O | 41.8 | > 100 | – | > 100 | – | > 100 | > 100 | > 100 | > 100 | > 100 | –
9 | C=C1C2C[C@@H]3O[C@H]4C[C@H]5O[C@@]6(C[C@@H]7O[C@]8(C[C@H](C)[C@@H]9O[C@@H]%10CC(CO)O[C@@H]%10C[C@@H]9O8)C[C@H](C)[C@@H]7O6)C[C@H]5O[C@H]4[C@H](C)[C@H]3OC(=O)C[C@H]3CC[C@@H]4OC5[C@H]6O[C@]7(CC[C@H]8CC(=C)[C@H](CC[C@@H](C[C@H]1C)O2)O8)CC6O[C@@H]5[C@@H](O7)[C@H]4O3 (some centres undefined) | > 1 | > 1 | > 1 | – | > 1 | – | > 0.433 | – | > 1 | > 1 | –
10 | COc1ccc(-c2cc3[nH]nc(N)c3c(=O)o2)cc1 | > 100 | > 100 | > 100 | > 100 | > 100 | > 100 | > 100 | > 100 | – | > 100 | –
11 | COC(=O)c1c2cccccc-2c(Cc2c3cccccc-3c(C(=O)OC)c2O)c1O | > 100 | > 100 | > 100 | > 100 | > 100 | > 100 | > 100 | > 100 | – | > 100 | –
12 | O=c1/c(=C/c2ccc(-c3ccc(Cl)cc3Cl)o2)sc2n1[C@@H](c1ccc(Cl)cc1)C=C(c1cc(F)c(Cl)cc1Cl)N=2 | > 100 | > 100 | – | > 100 | – | > 100 | > 100 | > 100 | > 100 | > 100 | > 100
13 | C=CC(Cl)(CBr)CCC(Br)C(C)(C)Cl (centres undefined) | 34.1 | 26.2 | 42.4 | 28.9 | – | – | – | 36.7 | 35 | – | 20.1
14 | CC(=O)O[C@H]1C(=O)[C@@]2(C)C(C(OC(=O)c3ccccc3)C3[C@@H](O)C(OC(=O)[C@@H](O)[C@H](NC(=O)c4ccccc4)c4ccc(C(F)(F)F)cc4)C(C)=C1C3(C)C)[C@]1(OC(C)=O)CO[C@@H]1C[C@@H]2O (some centres undefined) | – | > 25 | > 25 | > 25 | > 25 | – | > 25 | > 25 | – | > 25 | –
15 | CN(C)c1nc(Cl)c2c(-c3ccccc3)c(-c3ccccc3)oc2n1 | > 100 | > 100 | > 100 | > 100 | > 100 | > 100 | > 100 | > 100 | – | > 100 | > 100
16 | COc1ccccc1C(=O)c1c(NCc2ccccc2)c(=O)c1=O | > 100 | 37.8 | > 100 | > 100 | – | > 100 | > 100 | > 100 | > 100 | > 100 | –
17 | BrC(c1cccc2ccccc12)c1cccc2ccccc12 | 36.1 | 45.5 | 56.4 | 35.8 | > 100 | 28.8 | 30.1 | 42.5 | 54.1 | 50.1 | –
